Tests used:
[1] = molecular target: T1, bradykinin 1 receptor (B1R) of the rat (Rattus norvegicus, UniProt P97583); assay: Functional investigation on the rat bradykinin 1 receptor (B1R), Ca2+ FLIPR assay in CHO K1 rB1R cells; type: cell-based; conditions: B1R antagonism rat; test substance 10 μM; Ca2+ FLIPR, CHO K1 rB1R cells
T1 construct: expressed in transfected cells; host or cells: CHO K1 cells
T1 sequence (P97583 1-337): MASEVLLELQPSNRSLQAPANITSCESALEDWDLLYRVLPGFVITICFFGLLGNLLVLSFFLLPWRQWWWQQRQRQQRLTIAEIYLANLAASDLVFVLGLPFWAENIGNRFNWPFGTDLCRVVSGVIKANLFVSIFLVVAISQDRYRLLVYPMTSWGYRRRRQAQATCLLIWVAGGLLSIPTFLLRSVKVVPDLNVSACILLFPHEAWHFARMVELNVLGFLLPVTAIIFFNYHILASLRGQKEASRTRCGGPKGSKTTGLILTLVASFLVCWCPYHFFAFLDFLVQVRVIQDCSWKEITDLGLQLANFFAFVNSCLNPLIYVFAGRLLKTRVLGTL
Summary of the method: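 Stably transfected CHO K1 cells loaded with Fluo-4; FLIPR Ca2+ fluorescence peak (ex 488/em 540 nm). Compound added first (agonism vs Lys-Des-Arg9-bradykinin ≥50 nM human, Des-Arg9-bradykinin 10 μM rat), then after 10-20 min agonist at EC80; antagonism as % inhibition, IC50 from concentration series, n=2-3, N≥2.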

[2] = molecular target: T2, human μ opiate receptor (Homo sapiens, UniProt P35372); assay: Affinity for the human μ opiate receptor ([3H]-naloxone displacement, CHO-K1 receptor membrane preparation, SPA); type: binding; conditions: test concentration of 1 μM
T2 construct: purchased PerkinElmer Life Sciences, Zaventem, Belgium RB-HOM; host or cells: CHO-K1 cells (membrane preparation)
T2 sequence (P35372 whole entry): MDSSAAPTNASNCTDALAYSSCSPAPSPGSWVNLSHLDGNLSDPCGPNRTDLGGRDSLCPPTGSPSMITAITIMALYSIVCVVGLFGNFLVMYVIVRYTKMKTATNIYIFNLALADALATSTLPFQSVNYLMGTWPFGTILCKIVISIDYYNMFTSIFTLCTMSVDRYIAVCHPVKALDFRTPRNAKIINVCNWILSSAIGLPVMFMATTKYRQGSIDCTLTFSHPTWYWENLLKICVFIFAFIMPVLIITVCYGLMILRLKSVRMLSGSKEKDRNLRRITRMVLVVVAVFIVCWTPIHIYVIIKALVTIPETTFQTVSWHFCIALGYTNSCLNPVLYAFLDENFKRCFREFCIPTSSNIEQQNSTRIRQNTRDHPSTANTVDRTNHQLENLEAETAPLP
Summary of the method: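 Readout is percent displacement of [3H]-naloxone (1 nmol/l) from human μ receptor in CHO-K1 membranes, measured at 1 μmol/l compound. Incubation runs 90 minutes at room temperature with WGA-SPA beads in Tris-HCl/BSA buffer; non-specific binding is defined with 100 μmol/l naloxone.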

Row | SMILES | B1R Ant. r [10 μM] % Inhibition [1] [%] | μ (binding on the μ opioid receptor, % inhibition) [2] [%]
1 | COc1cc(C)c(S(=O)(=O)N2CCN(CCOCC(=O)NCC3CCC(C(c4ccc(Cl)cc4)N(C)C)CC3)CC2)c(C)c1C (centres unmarked) [Example 429] | 13 | 54
2 | CN(C)C(c1ccc(F)cc1)C1CCC(CNC(=O)COCCN2CCN(S(=O)(=O)c3ccccc3)CC2)CC1 (centres unmarked) [Example 433] | −12 | 46
3 | COc1cc(C)c(S(=O)(=O)N2CCC(OCC(=O)NCCC3CCC(C(c4ccc(Cl)cc4)N(C)C)CC3)C2)c(C)c1C (centres unmarked) [Example 412] | −5 | 50
4 | CN(C)C(c1ccc(F)cc1)C1CCC(CNC(=O)COC2CCN(S(=O)(=O)c3cccc(C(F)(F)F)c3)C2)CC1 (centres unmarked) [Example 402] | 45 | 53
5 | COc1ccc(S(=O)(=O)N2CCCCC2COCC(=O)NCC2CCC(C(c3ccc(F)cc3)N(C)C)CC2)c(OC)c1 (centres unmarked) [Example 405] | 24 | 52
6 | COc1cc(C)c(S(=O)(=O)N(CCOCC(=O)NCCC2CCC(C(c3cccc(F)c3)N(C)C)CC2)Cc2ccccc2)c(C)c1C (centres unmarked) [Example 436] | 10 | 57
7 | CN(C)C(CCc1ccccc1)C1CCC(CNC(=O)COCCN(C)S(=O)(=O)c2ccc(Cl)cc2)CC1 (centres unmarked) [Example 445] | 46 | 44
8 | CN(C)C(c1ccc(F)cc1)C1CCC(NC(=O)COC2CCN(S(=O)(=O)c3ccccc3)CC2)CC1 (centres unmarked) [Example 408] | 1 | 48
9 | COc1ccc(S(=O)(=O)N2CCCCC2COCC(=O)NCC2CCC(C(c3ccc(Cl)cc3)N(C)C)CC2)cc1OC (centres unmarked) [Example 367] | 2 | 60
10 | COc1cc(C)c(S(=O)(=O)N(C)CCOCC(=O)NC2CCC(C(c3ccc(F)cc3)N(C)C)CC2)c(C)c1 (centres unmarked) [Example 422] | 104 | 43
11 | COc1ccc(S(=O)(=O)N2Cc3ccccc3CC2COCC(=O)NCC2CCC(C(CCc3ccccc3)N(C)C)CC2)cc1 (centres unmarked) [Example 373] | 12 | 62
12 | CCN(CCOCC(=O)NCCC1CCC(C(c2ccc(F)cc2)N(C)C)CC1)S(=O)(=O)c1c(C)cc(OC)c(C)c1C (centres unmarked) [Example 413] | 83 | 55
13 | COc1cc(C)c(S(=O)(=O)N(CCOCC(=O)NC2CCC(C(c3cccc(F)c3)N(C)C)CC2)Cc2ccccc2)c(C)c1C (centres unmarked) [Example 419] | 34 | 53
14 | CN(C)C(c1ccc(F)cc1)C1CCC(CNC(=O)COCCN(C)S(=O)(=O)c2ccc(Cl)cc2)CC1 (centres unmarked) [Example 399] | 29 | 52
15 | COc1cc(C)c(S(=O)(=O)N2CCC(OCC(=O)NC3CCC(C(c4ccc(F)cc4)N(C)C)CC3)C2)c(C)c1 (centres unmarked) [Example 441] | 84 | 49
16 | CN(C)C(c1ccc(F)cc1)C1CCC(CNC(=O)COCCN(C)S(=O)(=O)c2ccc(F)cc2)CC1 (centres unmarked) [Example 400] | 9 | 55

Row | SMILES | B1R Ant. r [10 μM] % Inhibition [1] [%] | μ (binding on the μ opioid receptor, % inhibition) [2] [%]
17 | CN(C)C(c1ccc(F)cc1)C1CCC(CNC(=O)COCC2CCCN(S(=O)(=O)c3ccccc3)C2)CC1 (centres unmarked) [Example 424] | 20 | 39
18 | COc1ccc(S(=O)(=O)N(C)CCOCC(=O)NCC2CCC(C(c3ccc(Cl)cc3)N(C)C)CC2)cc1OC (centres unmarked) [Example 379] | 49 | 45
19 | CN(C)C(c1ccc(Cl)cc1)C1CCC(CCNC(=O)COC2CCN(S(=O)(=O)c3cccc(C(F)(F)F)c3)C2)CC1 (centres unmarked) [Example 431] | 34 | 45
20 | COc1cc(C)c(S(=O)(=O)N(C)CCOCC(=O)NCCC2CCC(C(c3ccc(F)cc3)N(C)C)CC2)c(C)c1 (centres unmarked) [Example 392] | 103 | 57
21 | CN(C)C(c1ccc(Cl)cc1)C1CCC(CCNC(=O)COC2CCCN(S(=O)(=O)c3ccccc3)C2)CC1 (centres unmarked) [Example 395] | 15 | 54
22 | Cc1cc(C)c(S(=O)(=O)N2CCC(OCC(=O)NCC3CCC(C(c4ccc(F)cc4)N(C)C)CC3)C2)c(C)c1 (centres unmarked) [Example 432] | 45 | 56
23 | CN(C)C(c1ccc(Cl)cc1)C1CCC(CCNC(=O)COC2CCN(S(=O)(=O)c3ccccc3)CC2)CC1 (centres unmarked) [Example 443] | −1 | 45
24 | COc1ccc(S(=O)(=O)N2Cc3ccccc3CC2COCC(=O)NCCC2CCC(C(c3ccc(Cl)cc3)N(C)C)CC2)cc1 (centres unmarked) [Example 374] | 11 | 59
25 | CN(C)C(c1cccc(F)c1)C1CCC(CCNC(=O)COC2CCN(S(=O)(=O)c3ccccc3)C2)CC1 (centres unmarked) [Example 376] | 12 | 62
26 | CN(C)C(c1ccc(F)cc1)C1CCC(NC(=O)COCCN(C)S(=O)(=O)c2ccc(Cl)cc2)CC1 (centres unmarked) [Example 406] | 12 | 51
27 | COc1cc(C)c(S(=O)(=O)N2CCN(CCOCC(=O)NCC3CCC(C(c4ccc(F)cc4)N(C)C)CC3)CC2)c(C)c1C (centres unmarked) [Example 366] | 16 | 55
28 | CN(C)C(c1ccc(F)cc1)C1CCC(NC(=O)COC2CCN(S(=O)(=O)c3ccc(F)cc3)C2)CC1 (centres unmarked) [Example 381] | 12 | 54
29 | CN(C)C(c1ccc(F)cc1)C1CCC(NC(=O)COCCN(C)S(=O)(=O)c2c(Cl)cc(Cl)cc2Cl)CC1 (centres unmarked) [Example 382] | 30 | 60
30 | CN(C)C(c1ccc(Cl)cc1)C1CCC(CNC(=O)COC2CCN(S(=O)(=O)c3ccc(F)cc3)C2)CC1 (centres unmarked) [Example 394] | 21 | 56
31 | CN(C)C(c1ccc(F)cc1)C1CCC(NC(=O)COC2CCCN(S(=O)(=O)c3ccccc3)C2)CC1 (centres unmarked) [Example 423] | −20 | 47
